Reference: ChEMBL document CHEMBL4425146, “Synthesis and biological evaluation of N(9)-substituted harmine derivatives as potential anticancer agents” (Bioorg Med Chem Lett, 2016)

Columns and labels:
SMMC-7721 = assay: Cytotoxicity against human SMMC7721 cells assessed as inhibition of cell growth after 48 hrs by MTT assay; assay type: functional, cell-based; conditions: SMMC-7721, 48 h
A549 [1] = assay: Cytotoxicity against human A549 cells assessed as inhibition of cell growth after 48 hrs by MTT assay; assay type: functional, cell-based; conditions: A549, 48 h
SGC-7901 = assay: Cytotoxicity against human SGC7901 cells assessed as inhibition of cell growth after 48 hrs by MTT assay; assay type: functional, cell-based; conditions: SGC-7901, 48 h
MCF7 [2] = assay: Cytotoxicity against human MCF7 cells assessed as inhibition of cell growth after 48 hrs by MTT assay; assay type: functional, cell-based; conditions: MCF7, 48 h
HL-60 [3] = assay: Cytotoxicity against human HL60 cells assessed as inhibition of cell growth after 3 days by MTT assay; assay type: functional, cell-based; conditions: HL-60, 72 h
P338 = assay: Cytotoxicity against mouse […] cells assessed as inhibition of cell growth after 3 days by MTT assay; assay type: functional, cell-based; conditions: 72 h
MCF7 [4] = assay: Cytotoxicity against human MCF7 cells assessed as inhibition of cell growth; assay type: functional, cell-based
COLO 205 = assay: Cytotoxicity against human COLO205 cells assessed as inhibition of cell growth after 48 hrs by MTT assay; assay type: functional, cell-based; conditions: COLO 205, 48 h
HL-60 [5] = assay: Cytotoxicity against human HL60 cells assessed as inhibition of cell growth after 48 hrs by MTT assay; assay type: functional, cell-based; conditions: HL-60, 48 h
A549 [6] = assay: Induction of apoptosis in human A549 cells assessed as early apoptotic cells at 0.5 uM after 48 hrs by Annexin V-FITC/propidium iodide staining based flow cytometry (reference value: 0.57 %); assay type: functional
A549 [7] = assay: Cell cycle arrest in human A549 cells assessed as accumulation at G2/M phase at 1 uM after 48 hrs by propidium iodide staining based flow cytometry (reference value: 14.62%); assay type: functional
A549 [8] = assay: Cell cycle arrest in human A549 cells assessed as accumulation at S phase at 0.1 uM after 48 hrs by propidium iodide staining based flow cytometry (reference value: 30.85 %); assay type: functional
A549 [9] = assay: Induction of apoptosis in human A549 cells assessed as early apoptotic cells at 1 uM after 48 hrs by Annexin V-FITC/propidium iodide staining based flow cytometry (reference value: 0.57 %); assay type: functional
A549 [10] = assay: Induction of apoptosis in human A549 cells assessed as viable cells at 1 uM after 48 hrs by Annexin V-FITC/propidium iodide staining based flow cytometry (reference value: 96.08 %); assay type: functional; conditions: A549, 48 h, read-out: Activity
A549 [11] = assay: Cell cycle arrest in human A549 cells assessed as accumulation at G2/M phase at 0.1 uM after 48 hrs by propidium iodide staining based flow cytometry (reference value: 14.62%); assay type: functional
A549 [12] = assay: Cell cycle arrest in human A549 cells assessed as accumulation at G2/M phase at 0.5 uM after 48 hrs by propidium iodide staining based flow cytometry (reference value: 14.62%); assay type: functional
A549 [13] = assay: Cell cycle arrest in human A549 cells assessed as accumulation at G0/G1 phase at 0.1 uM after 48 hrs by propidium iodide staining based flow cytometry (reference value: 53.54 %); assay type: functional
A549 [14] = assay: Induction of apoptosis in human A549 cells assessed as late apoptotic cells at 0.1 uM after 48 hrs by Annexin V-FITC/propidium iodide staining based flow cytometry (reference value: 2.70 %); assay type: functional
A549 [15] = assay: Cell cycle arrest in human A549 cells assessed as accumulation at S phase at 1 uM after 48 hrs by propidium iodide staining based flow cytometry (reference value: 30.85 %); assay type: functional
A549 [16] = assay: Cell cycle arrest in human A549 cells assessed as accumulation at G2/M phase after 48 hrs by propidium iodide staining based flow cytometry; assay type: functional
A549 [17] = assay: Induction of apoptosis in human A549 cells after 48 hrs by Annexin V-FITC/propidium iodide staining based flow cytometry; assay type: functional, cell-based
A549 [18] = assay: Cell cycle arrest in human A549 cells assessed as accumulation at sub-G1 phase after 48 hrs by propidium iodide staining based flow cytometry; assay type: functional
A549 [19] = assay: Induction of apoptosis in human A549 cells assessed as viable cells at 0.5 uM after 48 hrs by Annexin V-FITC/propidium iodide staining based flow cytometry (reference value: 96.08 %); assay type: functional; conditions: A549, 48 h, read-out: Activity
A549 [20] = assay: Cell cycle arrest in human A549 cells assessed as accumulation at sub-G1 phase at 0.1 uM after 48 hrs by propidium iodide staining based flow cytometry (reference value: 2.78 %); assay type: functional
A549 [21] = assay: Induction of apoptosis in human A549 cells assessed as late apoptotic cells at 0.5 uM after 48 hrs by Annexin V-FITC/propidium iodide staining based flow cytometry (reference value: 2.70 %); assay type: functional
A549 [22] = assay: Cell cycle arrest in human A549 cells assessed as accumulation at sub-G1 phase at 1 uM after 48 hrs by propidium iodide staining based flow cytometry (reference value: 2.78 %); assay type: functional
A549 [23] = assay: Induction of apoptosis in human A549 cells assessed as early apoptotic cells at 0.1 uM after 48 hrs by Annexin V-FITC/propidium iodide staining based flow cytometry (reference value: 0.57 %); assay type: functional
A549 [24] = assay: Induction of apoptosis in human A549 cells assessed as late apoptotic cells at 1 uM after 48 hrs by Annexin V-FITC/propidium iodide staining based flow cytometry (reference value: 2.70 %); assay type: functional
A549 [25] = assay: Cell cycle arrest in human A549 cells assessed as accumulation at G0/G1 phase at 0.5 uM after 48 hrs by propidium iodide staining based flow cytometry (reference value: 53.54 %); assay type: functional
A549 [26] = assay: Cell cycle arrest in human A549 cells assessed as accumulation at S phase at 0.5 uM after 48 hrs by propidium iodide staining based flow cytometry (reference value: 30.85 %); assay type: functional
A549 [27] = assay: Cell cycle arrest in human A549 cells assessed as accumulation at sub-G1 phase at 0.5 uM after 48 hrs by propidium iodide staining based flow cytometry (reference value: 2.78 %); assay type: functional
A549 [28] = assay: Cell cycle arrest in human A549 cells assessed as accumulation at G0/G1 phase at 1 uM after 48 hrs by propidium iodide staining based flow cytometry (reference value: 53.54 %); assay type: functional
A549 [29] = assay: Induction of apoptosis in human A549 cells assessed as viable cells at 0.1 uM after 48 hrs by Annexin V-FITC/propidium iodide staining based flow cytometry (reference value: 96.08 %); assay type: functional; conditions: A549, 48 h, read-out: Activity

## COc1ccc2c3ccnc(C)c3n(Cc3ccc(C)cc3)c2c1
SMMC-7721
  IC50: 21.3 µM
A549 [1]
  IC50: 3.89 µM
SGC-7901
  IC50: 5.29 µM
MCF7 [2]
  IC50: > 50 µM

## COc1cccc2c1C(=O)c1c(O)c3c(c(O)c1C2=O)C[C@@](O)(C(=O)CO)C[C@@H]3O[C@H]1C[C@H](N)[C@H](O)[C@H](C)O1 [DOXORUBICIN]
SMMC-7721
  IC50: 1.39 µM
A549 [1]
  IC50: 0.76 µM
MCF7 [2]
  IC50: 0.83 µM

## COc1ccc2c3ccnc(C)c3n(Cc3ccc(F)cc3)c2c1
SMMC-7721
  IC50: > 50 µM
A549 [1]
  IC50: 8.73 µM
SGC-7901
  IC50: 7.21 µM
MCF7 [2]
  IC50: > 50 µM

## COc1ccc2c3ccnc(C)c3n(C)c2c1
SMMC-7721
  IC50: 43.6 µM
A549 [1]
  IC50: 4.97 µM
SGC-7901
  IC50: 9.67 µM
MCF7 [2]
  IC50: > 50 µM

## COc1ccc2c(c1)[nH]c1c(C)nccc12 [HARMINE]
SMMC-7721
  IC50: 59.4 µM
A549 [1]
  IC50: 42.2 µM
SGC-7901
  IC50: 40.8 µM
MCF7 [2]
  IC50: 68.3 µM

## COc1ccc(S(=O)(=O)Nc2cccnc2Nc2ccc(O)cc2)cc1 [ABT-751]
HL-60 [3]
  IC50: 0.2 µM
P338
  IC50: 0.16 µM

## OCc1ccc2c(c1)c1ccccc1n2Cc1ccc(Cl)nc1
MCF7 [4]
  IC50: 20 to 30 µM

## COc1ccc2c3ccnc(C)c3n(Cc3ccccc3)c2c1
SMMC-7721
  IC50: 45.6 µM
A549 [1]
  IC50: 7.49 µM
SGC-7901
  IC50: 38.2 µM
MCF7 [2]
  IC50: > 50 µM

## COc1ccc2c3ccnc(C)c3n(Cc3ccccc3C)c2c1
SMMC-7721
  IC50: 39.5 µM
A549 [1]
  IC50: 8.34 µM
SGC-7901
  IC50: 17.2 µM
MCF7 [2]
  IC50: > 50 µM

## CCCCCCCCCCCC(=O)n1c2cc(OC)ccc2c2ccnc(C)c21
SMMC-7721
  IC50: 49.1 µM
A549 [1]
  IC50: 14.6 µM
SGC-7901
  IC50: 8.76 µM
MCF7 [2]
  IC50: > 50 µM

## COc1cc(Cn2c3ccc(C(C)=O)cc3c3ccnc(C)c32)cc(OC)c1OC
COLO 205
  IC50: 0.52 µM
HL-60 [5]
  IC50: 0.03 µM

## COc1ccc2c3ccnc(C)c3n(C(=O)c3ccccc3)c2c1
SMMC-7721
  IC50: > 50 µM
A549 [1]
  IC50: 2.81 µM
SGC-7901
  IC50: 7.69 µM
MCF7 [2]
  IC50: > 50 µM

## COc1ccc2c3ccnc(C)c3n(S(=O)(=O)c3ccc(C)cc3)c2c1
A549 [6]
  Activity: 11.5%
A549 [7]
  Activity: 36.64%
A549 [8]
  Activity: 30.27%
A549 [9]
  Activity: 17.59%
A549 [10]
  viability at 1 µM: 28.2%
A549 [11]
  Activity: 16.42%
A549 [12]
  Activity: 31.09%
A549 [13]
  Activity: 53.31%
A549 [14]
  Activity: 18.76%
A549 [15]
  Activity: 25.9%
SMMC-7721
  IC50: > 50 µM
A549 [16]
  Activity: Dose-dependent effect
A549 [1]
  IC50: 0.48 µM
A549 [17]
  Activity: Dose-dependent effect
A549 [18]
  Activity: Dose-dependent effect
A549 [19]
  viability at 0.5 µM: 45%
A549 [20]
  Activity: 8.63%
SGC-7901
  IC50: 1.56 µM
A549 [21]
  Activity: 42.79%
A549 [22]
  Activity: 24.88%
A549 [23]
  Activity: 2.68%
A549 [24]
  Activity: 54.11%
A549 [25]
  Activity: 36.99%
A549 [26]
  Activity: 31.93%
MCF7 [2]
  IC50: > 50 µM
A549 [27]
  Activity: 21.15%
A549 [28]
  Activity: 36.46%
A549 [29]
  viability at 0.1 µM: 73.1%

## CCCCCn1c2cc(OC)ccc2c2ccnc(C)c21
SMMC-7721
  IC50: 17.2 µM
A549 [1]
  IC50: 6.37 µM
SGC-7901
  IC50: 20.5 µM
MCF7 [2]
  IC50: > 50 µM
